Measurements taken from US20200246493A1, “DRUG-IODINATED OIL DISPERSION, METHOD FOR PREPARING SAME AND ITS APPLICATION IN EMBOLIZATION TREATMENT FOR LIVER CANCER” (Xiamen University, priority 2019, published 2020).

Details: fluorescence intensity over time

- fluorescence half-life: about three
SMILES: CC1(C)C(/C=C/C=C/C=C/C=C2\N(CCCCS(=O)(=O)O)c3ccc4ccccc4c3C2(C)C)=[N+](CCCCS(=O)(=O)[O-])c2ccc3ccccc3c21 [ICG, indocyanine green]
